ChEMBL document CHEMBL1140201, “Insights into ligand-elicited activation of human constitutive androstane receptor based on novel agonists and three-dimensional quantitative structure-activity relationship” (J Med Chem, 2008)

What was measured:
Assay type in all cases: cell-based
[1] = molecular target: T1, CAR (NR1I3) ligand-binding domain, wild type (Homo sapiens, UniProt Q14994); assay: Activation of human CAR-LBD expressed in human C3A cells at 10 uM after 24 hrs by GAL4-dependent luciferase reporter gene assay relative to control; details: C3A cells expressing human CAR-LBD, read-out: FC
T1 sequence (Q14994 whole entry): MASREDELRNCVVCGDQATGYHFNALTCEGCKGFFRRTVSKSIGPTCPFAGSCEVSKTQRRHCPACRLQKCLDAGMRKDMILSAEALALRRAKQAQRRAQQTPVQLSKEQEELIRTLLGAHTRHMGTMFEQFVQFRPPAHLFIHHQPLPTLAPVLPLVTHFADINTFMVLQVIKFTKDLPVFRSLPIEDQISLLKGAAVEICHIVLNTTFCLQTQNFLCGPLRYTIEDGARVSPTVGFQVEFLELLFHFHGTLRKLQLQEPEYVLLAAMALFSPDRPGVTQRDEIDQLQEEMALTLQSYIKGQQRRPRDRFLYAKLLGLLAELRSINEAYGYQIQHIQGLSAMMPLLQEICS

[2] = molecular target: T2, CAR (NR1I3) Phe161Ala mutant (Homo sapiens, UniProt Q14994, F161A); assay: Activation of human CAR Phe161Ala mutant expressed in human C3A cells at 10 uM after 24 hrs by GAL4-dependent luciferase reporter gene assay relative to control; details: C3A cells expressing human CAR Phe161Ala mutant, read-out: FC
[3] = molecular target: T3, CAR (NR1I3) His203Ala mutant (Homo sapiens, UniProt Q14994, H203A); assay: Activation of human CAR His203Ala mutant expressed in human C3A cells at 10 uM after 24 hrs by GAL4-dependent luciferase reporter gene assay relative to control; details: C3A cells expressing human CAR His203Ala mutant, read-out: FC
[4] = molecular target: T4, CAR (NR1I3) Ile164Ala mutant (Homo sapiens, UniProt Q14994, I164A); assay: Activation of human CAR Ile164Ala mutant expressed in human C3A cells at 10 uM after 24 hrs by GAL4-dependent luciferase reporter gene assay relative to control; details: C3A cells expressing human CAR Ile164Ala mutant, read-out: FC
[5] = molecular target: T5, CAR (NR1I3) Asn165Ala mutant (Homo sapiens, UniProt Q14994, N165A); assay: Activation of human CAR Asn165Ala mutant expressed in human C3A cells at 10 uM after 24 hrs by GAL4-dependent luciferase reporter gene assay relative to control; details: C3A cells expressing human CAR Asn165Ala mutant, read-out: FC
[6] = molecular target: T2, CAR (NR1I3) Phe161Ala mutant; assay: Activation of human CAR Phe161Ala mutant expressed in human C3A cells at 4 uM after 24 hrs by GAL4-dependent luciferase reporter gene assay relative to control; details: C3A cells expressing human CAR Phe161Ala mutant, read-out: FC
[7] = molecular target: T3, CAR (NR1I3) His203Ala mutant; assay: Activation of human CAR His203Ala mutant expressed in human C3A cells at 4 uM after 24 hrs by GAL4-dependent luciferase reporter gene assay relative to control; details: C3A cells expressing human CAR His203Ala mutant, read-out: FC
[8] = molecular target: T5, CAR (NR1I3) Asn165Ala mutant; assay: Activation of human CAR Asn165Ala mutant expressed in human C3A cells at 4 uM after 24 hrs by GAL4-dependent luciferase reporter gene assay relative to control; details: C3A cells expressing human CAR Asn165Ala mutant, read-out: FC
[9] = molecular target: T1, CAR (NR1I3) ligand-binding domain, wild type; assay: Activation of human CAR-LBD expressed in human C3A cells at 4 uM after 24 hrs by GAL4-dependent luciferase reporter gene assay relative to control; details: C3A cells expressing human CAR-LBD, read-out: FC
[10] = molecular target: T4, CAR (NR1I3) Ile164Ala mutant; assay: Activation of human CAR Ile164Ala mutant expressed in human C3A cells at 4 uM after 24 hrs by GAL4-dependent luciferase reporter gene assay relative to control; details: C3A cells expressing human CAR Ile164Ala mutant, read-out: FC

T5 sequence (Q14994 whole entry N165A, the tested form may be a part): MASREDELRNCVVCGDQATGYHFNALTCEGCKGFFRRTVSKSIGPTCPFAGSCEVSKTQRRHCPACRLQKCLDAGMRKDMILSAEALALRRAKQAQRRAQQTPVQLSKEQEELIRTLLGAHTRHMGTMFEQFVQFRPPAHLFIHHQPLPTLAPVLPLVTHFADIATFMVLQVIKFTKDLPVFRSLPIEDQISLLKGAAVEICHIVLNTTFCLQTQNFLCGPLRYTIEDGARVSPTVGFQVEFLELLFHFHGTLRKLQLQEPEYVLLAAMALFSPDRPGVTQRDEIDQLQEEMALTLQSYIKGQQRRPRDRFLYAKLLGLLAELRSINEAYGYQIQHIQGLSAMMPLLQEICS
T2 sequence (Q14994 whole entry F161A, the tested form may be a part): as the sequence (Q14994 whole entry N165A, the tested form may be a part) above, with F161A, A165N counted along it
T3 sequence (Q14994 whole entry H203A, the tested form may be a part): as the sequence (Q14994 whole entry N165A, the tested form may be a part) above, with A165N, H203A counted along it
T4 sequence (Q14994 whole entry I164A, the tested form may be a part): as the sequence (Q14994 whole entry N165A, the tested form may be a part) above, with I164A, A165N counted along it

Row | Structure (SMILES) | fold induction at 24 h, 10 µM [1] | fold induction at 24 h, 10 µM [2] | fold induction at 24 h, 10 µM [3] | fold induction at 24 h, 10 µM [4] | fold induction at 24 h, 10 µM [5] | fold induction at 24 h, 4 µM [6] | fold induction at 24 h, 4 µM [7] | fold induction at 24 h, 4 µM [8] | fold induction at 24 h, 4 µM [9] | fold induction at 24 h, 4 µM [10]
1 | CCOc1ccccc1N1CCN(Cc2ccc(C)s2)CC1 | 2.7 | 1.01 | 1.9 | 1.49 | 2.2 |  |  |  |  | 
2 | CCc1cc(Br)ccc1S(=O)(=O)NCc1ccccc1 | 2.51 | 3.36 | 1.92 | 2.89 | 1.19 |  |  |  |  | 
3 | CCC(=O)NCC(=O)N1CCCN1C(=O)Cc1c(C)[nH]c2ccccc12 | 2.39 | 0.96 | 2.06 | 1.08 | 1.23 |  |  |  |  | 
4 | CCN(c1ccccc1)S(=O)(=O)c1ccc(C(C)(C)CC)cc1 | 6.35 | 1.56 | 4.22 | 1.42 | 1.22 |  |  |  |  | 
5 | CSCCN1C(=O)CS[C@@H]1c1ccc(Br)s1 | 2.97 | 0.97 | 1.28 | 1.3 | 1.87 |  |  |  |  | 
6 | CN(C)c1ccc(NS(=O)(=O)c2ccc(Br)cc2)cc1 | 2.03 | 1.12 | 2.26 | 2.33 | 0.99 |  |  |  |  | 
7 | CCc1cccc(NC(=O)N(CC)[C@H](C)Cc2ccc(OC)cc2)c1 | 1.86 | 0.92 | 1.88 | 1.32 | 1.72 |  |  |  |  | 
8 | CCCCCNC(=O)Nc1c(C)cccc1C(C)(C)C | 2.6 | 0.97 | 4.17 | 1.24 | 1.76 |  |  |  |  | 
9 | O=C1CS[C@H](c2ccncc2)N1Cc1nc2ccccc2[nH]1 | 1.4 | 1.3 | 1.24 | 1.13 | 1.19 |  |  |  |  | 
10 | Cc1ccc(NC(=O)NC2CCC2)cc1C | 1.37 | 1.15 | 1.53 | 1.37 | 1.33 |  |  |  |  | 
11 | O=S(=O)(Nc1nc2c(s1)CCCC2)c1ccc(Br)s1 | 1.32 | 1 | 1.18 | 1.06 | 1.01 |  |  |  |  | 
12 | CC(C)c1ccc(OP(=O)(Oc2ccc(C(C)C)cc2)Oc2ccc(C(C)C)cc2)cc1 | 2.45 | 1.06 | 6.76 | 1.67 | 2.66 |  |  |  |  | 
13 | COc1ccc(OC)c(CN2C(=O)CS[C@@H]2c2ccc(F)c(Br)c2)c1 | 3.87 | 1.17 | 2.83 | 1.87 | 1.13 |  |  |  |  | 
14 | CCc1ccc(S(=O)(=O)Nc2ccccc2C(C)(C)C)cc1 | 7.92 | 0.94 | 2.62 | 1.55 | 1 |  |  |  |  | 
15 | O=S(=O)(NCCSCc1ccccc1)c1ccc(Cl)cc1 | 1.63 | 0.92 | 3.21 | 2.26 | 1.17 |  |  |  |  | 
16 | CCc1cc(Br)ccc1S(=O)(=O)Nc1ccccc1[C@@H](C)CC | 4.47 | 3.62 | 10.1 | 4.57 | 2.75 |  |  |  |  | 
17 | CSc1ccccc1NS(=O)(=O)c1cc(Cl)sc1Cl | 3.68 | 0.94 | 1.84 | 1.66 | 5.18 |  |  |  |  | 
18 | CCOc1ccccc1CCCNC(=O)Nc1c(CC)cccc1CC | 4.88 | 1.52 | 1.03 | 1.48 | 0.81 |  |  |  |  | 
19 | O=S(=O)(NCC(c1ccccc1)c1ccccc1)c1cccs1 | 3.28 | 0.95 | 1.86 | 1.42 | 0.53 |  |  |  |  | 
20 | Cc1cccc(NC(=O)N2CCN(c3cccc(C)c3)[C@H](C)C2)c1 | 1.45 | 1.38 | 1.43 | 0.84 | 1.08 |  |  |  |  | 
21 | CCCCN(c1ccccc1)S(=O)(=O)c1cccc2ccccc12 | 4.09 | 4.4 | 5.44 | 6.61 | 2.07 |  |  |  |  | 
22 | CCN(CC)c1ccc(NS(=O)(=O)c2ccc(Cl)cc2)c(C)c1 | 5.5 | 1.08 | 3.29 | 4.14 | 1.1 |  |  |  |  | 
23 | O=S(=O)(NCc1csc2ccccc12)c1cccs1 | 1.76 | 1.57 | 1.43 | 1.54 | 1.7 |  |  |  |  | 
24 | CCCc1ccc(S(=O)(=O)N(Cc2ccccc2)c2ccc(OC)cc2)cc1 | 3.8 | 1.22 | 3.68 | 1.56 | 1.82 |  |  |  |  | 
25 | C[C@@H]1Cc2ccccc2N1S(=O)(=O)c1cccc2nsnc12 | 5.22 | 1.3 | 1.52 | 6.66 | 1.05 |  |  |  |  | 
26 | Cn1ccnc1CN1CCCN(C(=O)Nc2ccc(F)c(F)c2F)CC1 | 2.23 | 1.24 | 1.49 | 1.36 | 1.98 |  |  |  |  | 
27 | O=C(NCC1CCCCC1)N[C@H]1C[C@@H]1c1ccccc1 | 2.95 | 1.21 | 2.16 | 2.86 | 1.14 |  |  |  |  | 
28 | Cc1cccc(NC(=O)N(Cc2ccccc2)Cc2ccccc2)c1 | 4.17 | 1.53 | 3.48 | 3.74 | 3.64 |  |  |  |  | 
29 | Clc1ccccc1C(c1ccccc1)(c1ccccc1)n1ccnc1 [CLOTRIMAZOLE] |  |  |  |  |  | 13.1 | 0.21 | 4.47 | 4.34 | 21.3
30 | O=P(Oc1ccccc1)(Oc1ccccc1)Oc1ccccc1 [TRIPHENYL PHOSPHATE] | 3.96 | 0.82 | 2.79 | 6.42 | 3.01 |  |  |  |  | 
